In publication PMC3617406 (Molecular pharmaceutics, 2013):
Structures can show the parent of a compound that is named as a salt.

Assays:
human ASBT = target: T1, human ASBT (Homo sapiens, UniProt Q12908); assay type: cell-based; conditions: for potency estimated from few doses: read-out: Estimated Ki for ASBT; for fold more potent ASBT inhibition than NTCP inhibition: Ki values of Table 4 and 5; for taurocholate uptake into ASBT-MDCK cells, percent of control: single drug concentration, same as in NTCP screening (typically 100 μM)
T1 sequence (Q12908 1-348): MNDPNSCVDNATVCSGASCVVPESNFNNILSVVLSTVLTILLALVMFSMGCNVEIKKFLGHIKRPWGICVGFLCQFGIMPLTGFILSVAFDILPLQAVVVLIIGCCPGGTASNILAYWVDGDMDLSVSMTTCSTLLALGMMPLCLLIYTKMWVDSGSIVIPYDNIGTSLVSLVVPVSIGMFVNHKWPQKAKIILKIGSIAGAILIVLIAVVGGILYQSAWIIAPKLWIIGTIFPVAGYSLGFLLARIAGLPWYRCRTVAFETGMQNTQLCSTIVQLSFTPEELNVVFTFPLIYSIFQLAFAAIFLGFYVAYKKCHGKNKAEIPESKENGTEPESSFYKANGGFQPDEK

human NTCP = target: T2, human NTCP (Homo sapiens, UniProt Q14973); assay type: cell-based; conditions: for potency estimated from few doses: read-out: Estimated Ki for NTCP; for NTCP inhibitor or non-inhibitor: inhibitor = Ki less than 300 μM
T2 sequence (Q14973 1-349): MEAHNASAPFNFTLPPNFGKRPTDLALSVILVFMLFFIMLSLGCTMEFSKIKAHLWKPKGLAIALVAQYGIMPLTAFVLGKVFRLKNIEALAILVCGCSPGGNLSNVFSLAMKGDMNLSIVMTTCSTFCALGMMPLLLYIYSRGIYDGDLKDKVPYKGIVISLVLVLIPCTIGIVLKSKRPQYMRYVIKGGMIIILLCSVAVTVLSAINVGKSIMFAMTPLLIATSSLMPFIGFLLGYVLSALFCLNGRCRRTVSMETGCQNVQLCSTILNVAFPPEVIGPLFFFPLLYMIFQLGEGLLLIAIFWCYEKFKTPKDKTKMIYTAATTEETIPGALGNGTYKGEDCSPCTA

| Structure (SMILES) | ASBT inhibitor or non-inhibitor (human ASBT; inhibitor = Ki below 300 μM) | potency estimated from few doses (human ASBT) [µM] | potency estimated from few doses (human NTCP) [µM] | fold more potent ASBT inhibition than NTCP inhibition (human ASBT) [fold] | taurocholate uptake into ASBT-MDCK cells, percent of control (human ASBT) | NTCP inhibitor or non-inhibitor (human NTCP) |
| --- | --- | --- | --- | --- | --- | --- |
| CCCc1nc(C(C)(C)O)c(C(=O)O)n1Cc1ccc(-c2ccccc2-c2nnn[nH]2)cc1 [Olmesartan] | inhibited NTCP but not ASBT | 1050 ± 422 |  |  |  |  |
| Nc1nc(NC2CC2)c2ncn([C@H]3C=C[C@@H](CO)C3)c2n1 [Abacavir] |  | 1460 | 1290 |  |  |  |
| CN/C(=N/CCSCc1nc[nH]c1C)NC#N [Cimetidine] |  | 208 ± 51 | 332 ± 73 |  |  |  |
| CCOC(=O)[C@H](CCc1ccccc1)N[C@@H](C)C(=O)N1CCC[C@H]1C(=O)O [Enalapril] |  | 162 ± 82 | > 100 | ≥ 10 |  |  |
| CC(=O)CC(c1ccccc1)c1c(O)c2ccccc2oc1=O (stereo not shown) [Warfarin] |  | 97.4 ± 26 | > 100 |  |  |  |
| NS(=O)(=O)c1cc2c(cc1C(F)(F)F)NC(Cc1ccccc1)NS2(=O)=O (stereo not shown) [Bendroflumethiazide] |  | 168 ± 10 |  |  |  |  |
| CCCN(CCC)CCc1cccc2c1CC(=O)N2 [Ropinirole] |  | 30.3 ± 11 | > 100 |  | below 50% |  |
| COc1ccc(CC(C)NCC(O)c2ccc(O)c(NC=O)c2)cc1 (stereo not shown) [Formoterol] |  | 175 ± 96 | > 100 |  |  |  |
| CCCCc1ncc(/C=C(\Cc2cccs2)C(=O)O)n1Cc1ccc(C(=O)O)cc1 [Eprosartan] |  | 246 ± 119 | > 100 |  |  | did not inhibit NTCP |
| CCCCC1=NC2(CCCC2)C(=O)N1Cc1ccc(-c2ccccc2-c2nnn[nH]2)cc1 [Irbesartan] |  | 131 ± 34 |  |  |  | inhibited NTCP |
| CN(C)CCCN1c2ccccc2Sc2ccc(Cl)cc21 [Chlorpromazine] |  | 50.7 ± 5.9 | 767 ± 268 | ≥ 10 | below 50% |  |
| CC(C)C[C@H](NC(=O)[C@H](Cc1ccccc1)NC(=O)c1cnccn1)B(O)O [Bortezomib] |  | 811 ± 243 | > 100 |  |  |  |
| COc1ccc2cc([C@H](C)C(=O)O)ccc2c1 [Naproxen] |  | 136 ± 13 | 217 ± 69 |  |  | inhibited NTCP |
| COc1cccc2c1C(=O)c1c(O)c3c(c(O)c1C2=O)C[C@@](O)(C(C)=O)C[C@@H]3O[C@H]1C[C@H](N)[C@H](O)[C@H](C)O1 [Daunorubicin] |  | > 100 | > 100 |  |  |  |
| C[C@]12C=CC(=O)C=C1CC[C@@H]1[C@@H]2[C@@H](O)C[C@@]2(C)[C@H]1CC[C@]2(O)C(=O)CO [Prednisolone] |  | 89.2 ± 32 | 335 ± 177 |  |  |  |
| NC(N)=Nc1nc(CSCCC(N)=NS(N)(=O)=O)cs1 [Famotidine] |  | 2280 ± 978 | 387 ± 130 |  |  |  |
| C[C@H]1O[C@H](O[C@H]2[C@H](O)[C@@H](O)[C@@H](O[C@H]3[C@H](O)[C@@H](O)C(O)O[C@@H]3CO)O[C@@H]2CO)[C@H](O)[C@@H](O)[C@@H]1N[C@H]1C=C(CO)[C@@H](O)[C@H](O)[C@H]1O (stereo partly shown) [Acarbose] |  | 318 ± 169 | > 100 |  |  |  |
| COC(=O)C1=C(C)NC(C)=C(C(=O)OCCN(C)Cc2ccccc2)C1c1cccc([N+](=O)[O-])c1 (stereo not shown) [Nicardipine] |  | 142 ± 3 | 309 ± 144 |  |  |  |
| CCCCOc1cc(C(=O)NCCN(CC)CC)c2ccccc2n1 [Dibucaine] |  | 85.8 ± 2.3 | > 100 | ≥ 10 |  |  |
| Nc1nc(N)c2nc(-c3ccccc3)c(N)nc2n1 [Triamterene] |  | 110 ± 3 | 411 ± 139 |  |  |  |
| CCOC(=O)C1=C(C)NC(C)=C(C(=O)OC)C1c1cccc([N+](=O)[O-])c1 (stereo not shown) [Nitrendipine] |  | 31.7 ± 6.5 |  |  |  |  |
| O=C(c1ccc(OCCN2CCCCC2)cc1)c1c(-c2ccc(O)cc2)sc2cc(O)ccc12 [Raloxifene HCl] |  | 65.8 ± 9.2 |  |  |  |  |
| CCN(CC)CCCC(C)Nc1ccnc2cc(Cl)ccc12 (stereo not shown) [Chloroquine] |  |  | 336 ± 101 |  |  |  |
